According to paper PMC9082524, “Aromatic heterocycle galectin-1 interactions for selective single-digit nM affinity ligands” (RSC Advances, 2018):
Where two headings read alike, the source gives them in different places. Each block holds one molecule with its values, some of them ahead of it.

How the values were obtained:
MCF-10A [1] = test: MTT cytotoxicity assay, MCF-10A; settings: MCF-10A normal cell line, 72 h, 0.04 μM to 40 μM
MCF-7 [2] = test: MTT cytotoxicity assay, MCF-7; settings: MCF-7 tumor cell line, 72 h, 0.04 μM to 40 μM
Human galectin-1 [3] = molecular target: T1, Human galectin-1 (Homo sapiens, UniProt P09382); test: Competitive fluorescence polarization, galectin-1 with high-affinity fluorescent probe 25; format: binding; set-up: made in house; settings: for Kd / Kd Galectin-1: galectin-1 50 nM, probe 25 1 nM, 100 nM BSA, rt, average ± SEM; for Galectin-3/galectin-1: ratio of Kd values, Table 2 (thiodigalactosides), galectin-1 selectivity over galectin-3
T1 sequence (P09382 whole entry): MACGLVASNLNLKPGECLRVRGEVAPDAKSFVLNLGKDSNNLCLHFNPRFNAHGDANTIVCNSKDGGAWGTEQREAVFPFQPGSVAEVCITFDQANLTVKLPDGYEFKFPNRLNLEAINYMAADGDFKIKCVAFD

JIMT-1 [4] = test: MTT cytotoxicity assay, JIMT-1; settings: JIMT-1 tumor cell line, 72 h, 0.04 μM to 40 μM
Human galectin-1 [5] = molecular target: T1, Human galectin-1; test: Competitive fluorescence polarization, galectin-1 (performed as described in ref 13); settings: for Galectin-3/galectin-1: ratio of Kd values, Table 1 (monogalactosides)
MCF-7 [6] = tested on: MCF-7
MCF-10A [7] = tested on: MCF-10A
JIMT-1 [8] = tested on: JIMT-1
galectin-3 [9] = molecular target: T2, galectin-3 (Homo sapiens, UniProt P17931); test: Competitive fluorescence polarization, galectin-3 (performed as described in ref 13)
T2 sequence (P17931 whole entry): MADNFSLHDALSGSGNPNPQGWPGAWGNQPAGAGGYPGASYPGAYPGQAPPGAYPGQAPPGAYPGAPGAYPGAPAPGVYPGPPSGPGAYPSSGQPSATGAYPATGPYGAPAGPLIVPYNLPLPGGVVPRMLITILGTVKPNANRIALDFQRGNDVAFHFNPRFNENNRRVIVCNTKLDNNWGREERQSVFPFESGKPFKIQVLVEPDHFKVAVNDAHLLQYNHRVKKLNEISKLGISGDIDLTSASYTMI

galectin-3 [10] = molecular target: T2, galectin-3; test: Competitive fluorescence polarization, galectin-3 with improved-affinity probe (as described in ref 15); format: binding; set-up: made in house; settings: average ± SEM

Structure (SMILES): OC[C@H]1O[C@@H](S[C@@H]2O[C@H](CO)[C@H](O)[C@H](n3cc(-c4ccsc4)nn3)[C@H]2O)[C@H](O)[C@@H](n2cc(-c3ccsc3)nn2)[C@H]1O [compound 1]
- Cytotoxicity (MCF-10A [1]): non-cytotoxic
- Cytotoxicity (MCF-7 [2]): non-cytotoxic
- Kd (Human galectin-1 [3]): 0.0061 ± 0.001 µM
- Kd Galectin-1 (Human galectin-1 [3]): single-digit
- Cytotoxicity (JIMT-1 [4]): non-cytotoxic

Structure (SMILES): Cc1ccc(S[C@@H]2O[C@H](CO)[C@H](O)[C@H](n3cc(-c4cccs4)nn3)[C@H]2O)cc1 [compound 6, p-Methylphenyl 3-deoxy-3-[4-(thien-2-yl)-1H-1,2,3-triazol-1-yl]-1-thio-β-D-galactopyranoside]
- Cytotoxicity (MCF-7 [6]): non-cytotoxic
- Kd (Human galectin-1 [5]): 61 ± 4 µM
- Cytotoxicity (MCF-10A [7]): non-cytotoxic
- Cytotoxicity (JIMT-1 [8]): non-cytotoxic

Structure (SMILES): Cc1ccc(S[C@@H]2O[C@H](CO)[C@H](O)[C@H](n3cc(-c4ccsc4)nn3)[C@H]2O)cc1 [compound 7, p-Methylphenyl 3-deoxy-3-[4-(thien-3-yl)-1H-1,2,3-triazol-1-yl]-1-thio-β-D-galactopyranoside]
- Cytotoxicity (MCF-7 [6]): non-cytotoxic
- Kd (Human galectin-1 [5]): 47 ± 2 µM
- Cytotoxicity (MCF-10A [7]): non-cytotoxic
- Cytotoxicity (JIMT-1 [8]): non-cytotoxic

Structure (SMILES): O=C(O)CS[C@@H]1O[C@H](CO)[C@H](O)[C@H](n2cc(-c3ccsc3)nn2)[C@H]1O [compound 12, Carboxymethyl 3-deoxy-3-[4-(thien-3-yl)-1H-1,2,3-triazol-1-yl]-1-thio-β-D-galactopyranoside]
- Cytotoxicity (MCF-10A [1]): non-cytotoxic
- Kd (galectin-3 [9]): 200 ± 7 µM
- Cytotoxicity (MCF-7 [2]): non-cytotoxic
- Kd (Human galectin-1 [5]): 58 ± 4 µM
- Galectin-3/galectin-1 (Human galectin-1 [5]): 3.4
- Cytotoxicity (JIMT-1 [4]): non-cytotoxic

Structure (SMILES): O=C(O)CS[C@@H]1O[C@H](CO)[C@H](O)[C@H](n2cc(-c3nccs3)nn2)[C@H]1O [compound 13, Carboxymethyl 3-deoxy-3-[4-(thiazol-2-yl)-1H-1,2,3-triazol-1-yl]-1-thio-β-D-galactopyranoside]
- Cytotoxicity (MCF-10A [1]): non-cytotoxic
- Kd (galectin-3 [9]): 280 ± 7 µM
- Cytotoxicity (MCF-7 [2]): non-cytotoxic
- Kd (Human galectin-1 [5]): 43 ± 2 µM
- Cytotoxicity (JIMT-1 [4]): non-cytotoxic

Structure (SMILES): O=C(O)CS[C@@H]1O[C@H](CO)[C@H](O)[C@H](n2cc(-c3cscn3)nn2)[C@H]1O [compound 14, Carboxymethyl 3-deoxy-3-[4-(thiazol-4-yl)-1H-1,2,3-triazol-1-yl]-1-thio-β-D-galactopyranoside]
- Cytotoxicity (MCF-10A [1]): non-cytotoxic
- Kd (galectin-3 [9]): 540 ± 30 µM
- Cytotoxicity (MCF-7 [2]): non-cytotoxic
- Kd (Human galectin-1 [5]): 62 ± 2 µM
- Galectin-3/galectin-1 (Human galectin-1 [5]): 8.7
- Cytotoxicity (JIMT-1 [4]): non-cytotoxic

Structure (SMILES): OC[C@H]1O[C@@H](S[C@@H]2O[C@H](CO)[C@H](O)[C@H](n3cc(-c4nccs4)nn3)[C@H]2O)[C@H](O)[C@@H](n2cc(-c3nccs3)nn2)[C@H]1O [compound 19, 1,1′-Sulfanediyl-bis-{3-deoxy-3-[4-(thiazol-2-yl)-1H-1,2,3-triazol-1-yl]-β-D-galactopyranoside}]
- Cytotoxicity (MCF-10A [1]): non-cytotoxic
- Cytotoxicity (MCF-7 [2]): non-cytotoxic
- Kd (Human galectin-1 [3]): 0.0084 ± 0.001 µM
- Kd Galectin-1 (Human galectin-1 [3]): single-digit
- Cytotoxicity (JIMT-1 [4]): non-cytotoxic

Now from value to molecule:

- Kd (Human galectin-1 [5]): 370 ± 30 µM
- Galectin-3/galectin-1 (Human galectin-1 [5]): 2.6
Structure (SMILES): Cc1ccc(S[C@@H]2O[C@H](CO)[C@H](O)[C@H](n3cc(C4CCCC4)nn3)[C@H]2O)cc1 [compound 4, p-Methylphenyl 3-deoxy-3-(4-cyclopentyl-1H-1,2,3-triazol-1-yl)-1-thio-β-D-galactopyranoside]

- Kd (Human galectin-1 [5]): 120 ± 7 µM
- Galectin-3/galectin-1 (Human galectin-1 [5]): 2.1
Structure (SMILES): Cc1ccc(S[C@@H]2O[C@H](CO)[C@H](O)[C@H](n3cc(-c4ccoc4)nn3)[C@H]2O)cc1 [compound 5, p-Methylphenyl 3-deoxy-3-[4-(furan-3-yl)-1H-1,2,3-triazol-1-yl]-1-thio-β-d-galactopyranoside]

- Kd (Human galectin-1 [5]): 47 ± 3 µM
- Galectin-3/galectin-1 (Human galectin-1 [5]): 4.7
Structure (SMILES): Cc1ccc(S[C@@H]2O[C@H](CO)[C@H](O)[C@H](n3cc(-c4ncc[nH]4)nn3)[C@H]2O)cc1 [compound 8, p-Methylphenyl 3-deoxy-3-[4-(1H-imidazol-2-yl)-1H-1,2,3-triazol-1-yl]-1-thio-β-D-galactopyranoside]

- Kd (Human galectin-1 [5]): 140 ± 7 µM
- Galectin-3/galectin-1 (Human galectin-1 [5]): 2.4
Structure (SMILES): Cc1ccc(S[C@@H]2O[C@H](CO)[C@H](O)[C@H](n3cc(-c4c[nH]cn4)nn3)[C@H]2O)cc1 [compound 9, p-Methylphenyl 3-deoxy-3-[4-(1H-imidazol-4-yl)-1H-1,2,3-triazol-1-yl]-1-thio-β-D-galactopyranoside]

- Kd (galectin-3 [9]): 430 ± 20 µM
- Kd (Human galectin-1 [5]): 180 ± 9 µM
- Galectin-3/galectin-1 (Human galectin-1 [5]): 2.4
Structure (SMILES): O=C(O)CS[C@@H]1O[C@H](CO)[C@H](O)[C@H](n2cc(-c3cncs3)nn2)[C@H]1O [compound 15, Carboxymethyl 3-deoxy-3-[4-(thiazol-5-yl)-1H-1,2,3-triazol-1-yl]-1-thio-β-D-galactopyranoside]

- Galectin-3/galectin-1 (Human galectin-1 [5]): 0.2
Structure (SMILES): Cc1ccc(S[C@@H]2O[C@H](CO)[C@H](O)[C@H](O)[C@H]2O)cc1 [compound 16, reference compound]

- Kd (galectin-3 [9]): 1800 ± 100 µM
- Kd (Human galectin-1 [5]): 430 ± 40 µM
- Galectin-3/galectin-1 (Human galectin-1 [5]): 4.2
Structure (SMILES): O=C(O)CS[C@@H]1O[C@H](CO)[C@H](O)[C@H](O)[C@H]1O [compound 17, reference compound]

- Kd (galectin-3 [10]): 0.18 ± 0.01 µM
- Increased galectin-1 selectivity compared to corresponding monogalactoside (Human galectin-1 [3]): 2 fold
- Lower affinity for galectin-1 than thiophene 1 (Human galectin-1 [3]): 4 fold
- Kd (Human galectin-1 [3]): 0.025 ± 0.002 µM
- Galectin-3/galectin-1 (Human galectin-1 [3]): 7.2
Structure (SMILES): OC[C@H]1O[C@@H](S[C@@H]2O[C@H](CO)[C@H](O)[C@H](n3cc(-c4ncc[nH]4)nn3)[C@H]2O)[C@H](O)[C@@H](n2cc(-c3ncc[nH]3)nn2)[C@H]1O [compound 20, 1,1′-Sulfanediyl-bis-{3-deoxy-3-[4-(1H-imidazol-2-yl)-1H-1,2,3-triazol-1-yl]-β-D-galactopyranoside}]

- Kd (galectin-3 [10]): 0.061 ± 0.003 µM
- Increased galectin-1 selectivity compared to corresponding monogalactoside (Human galectin-1 [3]): 2 fold
- Kd (Human galectin-1 [3]): 0.012 ± 0.001 µM
- Galectin-3/galectin-1 (Human galectin-1 [3]): 5.1
Structure (SMILES): OC[C@H]1O[C@@H](S[C@@H]2O[C@H](CO)[C@H](O)[C@H](n3cc(-c4nccs4)nn3)[C@H]2O)[C@H](O)[C@@H](n2cc(-c3ccsc3)nn2)[C@H]1O [compound 22, 3,3′-Dideoxy-3-[4-(thiazol-2-yl)-1H-1,2,3-triazol-1-yl]-3′-[4-(thien-3-yl)-1H-1,2,3-triazol-1-yl]-1,1′-sulfanediyl-di-β-D-galactopyranoside]

- Kd (galectin-3 [10]): 0.0018 ± 0.0002 µM
- Kd (Human galectin-1 [3]): 0.013 ± 0.001 µM
- Galectin-3/galectin-1 (Human galectin-1 [3]): 0.14
Structure (SMILES): OC[C@H]1O[C@@H](S[C@@H]2O[C@H](CO)[C@H](O)[C@H](n3cc(-c4nccs4)nn3)[C@H]2O)[C@H](O)[C@@H](n2cc(-c3ccc(F)c(F)c3)nn2)[C@H]1O [compound 23, 3,3′-Dideoxy-3′-[4-(3,4-difluorophenyl)-1H-1,2,3-triazol-1-yl]-3-[4-(thiazol-2-yl)-1H-1,2,3-triazol-1-yl]-1,1′-sulfanediyl-di-β-D-galactopyranoside]
